This assay deals with P388 leukemia ip, CD2F1 mice, survival T/C. Put plainly: NCI In Vivo Anticancer Drug Screen. Data for tumor model P388 Leukemia (intraperitoneal) in CD2F1 (CDF1) mice. The following applies: endpoint: median survival time, higher = longer survival. In short, it runs like this: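 Mice carrying the transplanted tumor received test compound or vehicle. Survival was recorded in each group, and the value is the treated-group measurement divided by that of the vehicle-treated control group.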

Where [1] appears, read: dose: 25.0 mg/kg/injection, schedule: Q01DX009 (ip), vehicle: Klucel (hydroxypropylcellulose) (HPC).
Where [2] appears, read: dose: 50.0 mg/kg/injection, schedule: Q01DX009 (ip), vehicle: Klucel (hydroxypropylcellulose) (HPC).
[3] abbreviates: dose: 100.0 mg/kg/injection, schedule: Q01DX009 (ip), vehicle: Klucel (hydroxypropylcellulose) (HPC).
[4] abbreviates: dose: 200.0 mg/kg/injection, schedule: Q01DX009 (ip), vehicle: Klucel (hydroxypropylcellulose) (HPC).
Where [5] appears, read: dose: 66.0 mg/kg/injection, schedule: Q04DX003 (ip), vehicle: saline with Tween-80.
The mark [6] stands for this setting: dose: 60.0 mg/kg/injection, schedule: Q01DX005 (ip), vehicle: saline with Tween-80.
Where [7] appears, read: dose: 120.0 mg/kg/injection, schedule: Q01DX005 (ip), vehicle: saline with Tween-80.
The mark [8] stands for this setting: dose: 240.0 mg/kg/injection, schedule: Q01DX005 (ip), vehicle: saline with Tween-80.

18 compounds from PubChem BioAssay AID330 (DTP/NCI, 2004) can be followed below.

“And” between values parts separate entries of the source, which are not always exact repeats. Equal values may be shown once. Toxic doses and inconclusive results are not listed.

`CC1(C)CC(=O)N(Cc2ccccc2)N1C(=O)c1ccccc1`: the T/C (dose: 50.0 mg/kg/injection, schedule: Q01DX001 (ip), vehicle: saline with Tween-80) is 100 % of control; the T/C (dose: 100.0 mg/kg/injection, schedule: Q01DX001 (ip), vehicle: saline with Tween-80) is 95 % of control; the T/C (dose: 200.0 mg/kg/injection, schedule: Q01DX001 (ip), vehicle: saline with Tween-80) was 100 % of control.
For `NC(=S)NNC(=O)c1ccc([N+](=O)[O-])cc1`, the T/C under setting [1] is 100 % of control, the T/C under setting [2] was 105 % of control, the T/C under setting [3] was 99 % of control and the T/C under setting [4] was 96 % of control.
For the compound `Nc1cc(C(=O)Nc2ccc(C3=NCCN3)cc2)ccc1C(=O)Nc1ccc(C2=NCCN2)cc1`, the T/C is, setting by setting: (dose: 20.0 mg/kg/injection, schedule: Q04DX003 (ip), vehicle: saline with Tween-80) 168 % of control; (dose: 30.0 mg/kg/injection, schedule: Q04DX003 (ip), vehicle: saline with Tween-80) 204 % of control; (dose: 44.0 mg/kg/injection, schedule: Q04DX003 (ip), vehicle: saline with Tween-80) 277 % of control; under setting [5], 181 % of control.
Take `O=c1c2ccccc2sc2c([N+](=O)[O-])ccc(NCCCC3CCCN4CCCCC34)c12` (stereo unspecified): the T/C by setting is: (dose: 31.9 mg/kg/injection, schedule: Q01DX005 (ip), vehicle: saline with Tween-80) 100 % of control; (dose: 63.8 mg/kg/injection, schedule: Q01DX005 (ip), vehicle: saline with Tween-80) 102 % of control; (dose: 127.5 mg/kg/injection, schedule: Q01DX005 (ip), vehicle: saline with Tween-80) 110 % of control.
For `Nc1nc(N)n2c(N)nnc2n1`, the T/C runs as follows: (dose: 50.0 mg/kg/injection, schedule: Q01DX009 (ip), vehicle: saline) 105 % of control; (dose: 100.0 mg/kg/injection, schedule: Q01DX009 (ip), vehicle: saline) 107 % of control; (dose: 200.0 mg/kg/injection, schedule: Q01DX009 (ip), vehicle: saline) 102 % of control.
`NC(=O)c1nnn(Cc2ccccc2)c1N`: the T/C (dose: 25.0 mg/kg/injection, schedule: Q01DX009 (ip), vehicle: saline with Tween-80) is 119 % of control; the T/C (dose: 50.0 mg/kg/injection, schedule: Q01DX009 (ip), vehicle: saline with Tween-80) was 102 % of control; the T/C (dose: 100.0 mg/kg/injection, schedule: Q01DX009 (ip), vehicle: saline with Tween-80) is 109 % of control; the T/C (dose: 200.0 mg/kg/injection, schedule: Q01DX009 (ip), vehicle: saline with Tween-80) is 106 % of control; the T/C (dose: 400.0 mg/kg/injection, schedule: Q01DX009 (ip), vehicle: saline with Tween-80) was 110 % of control.
On to `Cc1cc(NC(=S)Nc2ccccc2)c(NC(=S)Nc2ccccc2)cc1C`, for which the T/C under setting [1] was 97 % of control; the T/C under setting [2] is 100 % of control; the T/C under setting [3] was 98 % of control; the T/C under setting [4] is 92 % of control; the T/C (dose: 400.0 mg/kg/injection, schedule: Q01DX009 (ip), vehicle: Klucel (hydroxypropylcellulose) (HPC)) was 106 % of control.
With `O=C(Nc1c(Cl)cccc1Cl)OCc1ccco1`, the T/C by setting is: (dose: 60.0 mg/kg/injection, schedule: Q01DX005 (ip), vehicle: Klucel (hydroxypropylcellulose) (HPC)) 105 % of control; (dose: 120.0 mg/kg/injection, schedule: Q01DX005 (ip), vehicle: Klucel (hydroxypropylcellulose) (HPC)) 102 % of control; (dose: 240.0 mg/kg/injection, schedule: Q01DX005 (ip), vehicle: Klucel (hydroxypropylcellulose) (HPC)) 100 % of control.
Turning to `O=CNc1ccc(C(=O)O)c(O)c1`, the T/C was 98 % of control under setting [6], 93 % of control under setting [7] and 90 % of control under setting [8].
`COC(=O)[C@@H]1C(=O)[C@H](C(=O)OC)C2CCCC3CCCC1N32` (stereo partly specified): the T/C by setting is: (dose: 50.0 mg/kg/injection, schedule: Q01DX005 (ip), vehicle: saline with Tween-80) 98 % of control; (dose: 100.0 mg/kg/injection, schedule: Q01DX005 (ip), vehicle: saline with Tween-80) 98 % of control.
For `Cc1c2cc[n+](CCO)cc2c(C)c2c1[nH]c1ccc(O)cc12`, the T/C reads like this: (dose: 0.79 mg/kg/injection, schedule: Q04DX003 (ip), vehicle: saline) 155 % of control; (dose: 1.56 mg/kg/injection, schedule: Q04DX003 (ip), vehicle: saline) 165 % of control; (dose: 3.12 mg/kg/injection, schedule: Q04DX003 (ip), vehicle: saline) 165 % of control; (dose: 6.25 mg/kg/injection, schedule: Q04DX003 (ip), vehicle: saline) 155 % of control; (dose: 12.5 mg/kg/injection, schedule: Q04DX003 (ip), vehicle: saline) 100 % of control; (dose: 25.0 mg/kg/injection, schedule: Q04DX003 (ip), vehicle: saline) 92 % of control.
For `CCC(/C=C/c1ccc(C)cc1)=N\NC(=O)c1ccccc1`, the T/C was 98 % of control under setting [6], 89 % of control under setting [7] and 90 % of control under setting [8].
For `Cc1cc(=O)c2ccc(Cl)c(C)c2[nH]1`, the T/C was 110 % of control under setting [6], 93 % of control under setting [7] and 103 % of control under setting [8].
As for `CCOC(=O)CCCc1ccc(N=NN(C)C)cc1`, the T/C under setting [5] is 118 % of control and the T/C (dose: 100.0 mg/kg/injection, schedule: Q04DX003 (ip), vehicle: saline with Tween-80) was 159 % of control.
Regarding `O=C(NC(Cc1ccccc1F)C(=O)O)c1ccccc1` (stereo unspecified), the T/C runs as follows: (dose: 25.0 mg/kg/injection, schedule: Q01DX009 (ip), vehicle: other) 98 % of control; (dose: 50.0 mg/kg/injection, schedule: Q01DX009 (ip), vehicle: other) 105 % of control; (dose: 100.0 mg/kg/injection, schedule: Q01DX009 (ip), vehicle: other) 98 % of control.
Turning to `COc1cccc2c1C(=O)c1c(O)c3c(c(O)c1C2=O)C[C@@](O)(C(C)O)C[C@@H]3OC1CC(N(C)C)C(O)C(C)O1` (stereo partly specified), the T/C is, setting by setting: (dose: 0.78 mg/kg/injection, schedule: Q01DX009 (ip), vehicle: water) 152 % of control; (dose: 1.56 mg/kg/injection, schedule: Q01DX009 (ip), vehicle: water) 159 % of control and 161 % of control; (dose: 2.35 mg/kg/injection, schedule: Q04DX003 (ip), vehicle: water) 107 % of control; (dose: 3.13 mg/kg/injection, schedule: Q01DX009 (ip), vehicle: water) 165 % of control and 172 % of control; (dose: 6.25 mg/kg/injection, schedule: Q01DX009 (ip), vehicle: water) 198 % of control and 209 % of control; (dose: 9.4 mg/kg/injection, schedule: Q04DX003 (ip), vehicle: water) 111 % of control. Also, where the note is “dose: 75.0 mg/kg/injection, schedule: Q04DX003 (ip), vehicle: water”, the T/C was 108 % of control.
Consider `CCN(CC)CC(C)Nc1cc(C)nc2c1ccc1c2ccc2c(NC(C)CN(CC)CC)cc(C)nc21` (stereo unspecified), for which the T/C (dose: 12.5 mg/kg/injection, schedule: Q01DX009 (ip), vehicle: distilled water + Tween-80) is 113 % of control; the T/C (dose: 25.0 mg/kg/injection, schedule: Q01DX009 (ip), vehicle: distilled water + Tween-80) is 111 % of control; the T/C (dose: 50.0 mg/kg/injection, schedule: Q01DX009 (ip), vehicle: distilled water + Tween-80) was 119 % of control.
With `COc1cccc2c1C(=O)c1c(O)c3c(c(O)c1C2=O)CC(=O)CC3OC1CC(NC(=O)C(F)(F)F)C(O)C(C)O1` (stereo unspecified), the T/C (dose: 1.56 mg/kg/injection, schedule: Q01DX009 (ip), vehicle: other) was 104 % of control; the T/C (dose: 3.13 mg/kg/injection, schedule: Q01DX009 (ip), vehicle: other) is 102 % of control; the T/C (dose: 6.25 mg/kg/injection, schedule: Q01DX009 (ip), vehicle: other) is 98 % of control; the T/C (dose: 12.5 mg/kg/injection, schedule: Q01DX009 (ip), vehicle: other) was 90 % of control.
